In PubChem BioAssay (NCI):
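Where inhibition never reached the appropriate level, the endpoint shown equals the highest concentration tested. Otherwise, values were interpolated linearly from a five-concentration, 48-hour dose response in 96-well plates. TGI denotes the concentration required for complete inhibition of growth.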

How the values were obtained:
Test in all cases: NCI tumour cell line growth inhibition, 48 h
[1] = test system: DU-145 prostate
[2] = test system: SK-MEL-2 melanoma
[3] = test system: MOLT-4 leukemia
[4] = test system: PC-3 prostate
[5] = test system: HCC-2998 colon
[6] = test system: TK-10 renal
[7] = test system: IGROV1 ovarian
[8] = test system: SF-268 CNS
[9] = test system: A549 NSCLC
[10] = test system: RXF 393 renal
[11] = test system: EKVX NSCLC
[12] = test system: SF-539 CNS
[13] = test system: ACHN renal
[14] = test system: HL-60(TB) leukemia
[15] = test system: KM12 colon
[16] = test system: SW-620 colon
[17] = test system: COLO 205 colon
[18] = test system: OVCAR-5 ovarian
[19] = test system: CCRF-CEM leukemia
[20] = test system: SN12C renal

| SMILES | TGI [1] [µM] | TGI [2] [µM] | TGI [3] [µM] | TGI [4] [µM] | TGI [5] [µM] | TGI [6] [µM] | TGI [7] [µM] | TGI [8] [µM] | TGI [9] [µM] | TGI [10] [µM] | TGI [11] [µM] | TGI [12] [µM] | TGI [13] [µM] | TGI [14] [µM] | TGI [15] [µM] | TGI [16] [µM] | TGI [17] [µM] | TGI [18] [µM] | TGI [19] [µM] | TGI [20] [µM] |
| --- | --- | --- | --- | --- | --- | --- | --- | --- | --- | --- | --- | --- | --- | --- | --- | --- | --- | --- | --- | --- |
| CCCCCCCC/C=C\CCCCCCCCNc1ccn(C2OC(COP(=O)(O)OC3CC(n4cc(F)c(=O)[nH]c4=O)OC3CO)C(O)C2O)c(=O)n1 (stereo not given) | > 100 | > 100 | 20.5 | > 100 | > 100 | > 100 | > 100 | > 100 | > 100 | > 100 | > 100 | 5.16 | > 100 | 45.7 | > 100 | > 100 | > 100 | > 100 | 17.9 | > 100 |
| C=C(Cl)C(C)(Cl)CCC(Cl)C(C)(C)Cl (stereo not given) | > 100 | > 100 | 66.1 | > 100 | > 100 | > 100 | > 100 | > 100 | > 100 | > 100 | > 100 | > 100 | > 100 | > 100 | > 100 | > 100 | > 100 | > 100 | > 100 | > 100 |
| COC1Cc2c(C)c(OC(C)=O)c3cccnc3c2O1 (stereo not given) | 31 | 31.2 | 43.1 | > 100 | > 100 | > 100 | 37.3 | 34 | 34 | 31.7 | 30.6 | > 100 | 22.8 | 25.3 | > 100 | 27.9 | > 100 | 32.7 | 34.1 | 37.8 |
| C=CCNC1=C2C[C@@H](C)C[C@@H](OC)[C@H](OC(=O)CN(C)C)[C@H](C)/C=C(\C)[C@@H](OC(N)=O)[C@H](OC)/C=C\C=C(/C)C(=O)NC(=CC1=O)C2=O | 2.72 | 13.9 | > 41.6 | 16.6 | 0.284 | 16.3 | 13.5 | 30.5 | 16.9 | > 41.3 | 21.8 | 16.2 | 20.1 | 13.7 | 0.274 | 26.9 | 1.64 | 25.7 | > 59.3 | 17.7 |
| NCC(=O)C(O)C(O)C(O)CO (stereo not given) | > 100 | > 100 | > 100 | > 100 | > 100 | > 100 | > 100 | > 100 | > 100 | > 100 | > 100 | > 100 | > 100 | > 100 | > 100 | > 100 | > 100 | > 100 | > 100 | > 100 |
| C1COC2SC3=C(SC(=C4SC5=C(SCCS5)S4)S3)SC2O1 (stereo not given) | > 100 | > 100 | > 100 | > 100 | > 100 | > 100 | > 100 | > 100 | > 100 | > 100 | > 100 | > 100 | > 100 | > 100 | > 100 | > 100 | > 100 | > 100 | > 100 | > 100 |
| COc1cccc2c1C(=O)C(=O)c1c-2oc(=O)c2cc(C)cc(OC)c12 | 27.9 | 35.1 | 74.3 | > 75 | 37.6 | > 75 | 32 | 41.8 | > 75 | 42.8 | > 75 | > 75 | > 75 | 49.9 | 53.9 | > 75 | > 75 | > 75 | > 75 | > 75 |
| O=C(NNC(=S)Nc1ccccc1)C12CC3CC(CC(C3)C1)C2 | > 100 | > 86.9 | 60 | > 100 | > 95.7 | > 100 | > 100 | > 100 | > 100 | > 100 | > 100 | > 100 | > 100 | 37.7 | > 100 | > 100 | > 73.2 | > 100 | > 53.5 | > 100 |
| c1ccc(N/N=C2\CC(c3ccccc3)Oc3ccccc32)cc1 (stereo not given) | > 100 | > 100 | > 100 | > 100 | > 100 | > 100 | > 100 | > 100 | > 100 | 75.3 | 83.9 | > 100 | > 100 | > 100 | > 100 | > 100 | > 100 | > 100 | > 100 | > 100 |
| COC(=O)C1([C@@H]2C[C@@H](O)[C@]3(C)CC/C=C(\C)CCC[C@H](C)[C@H](O)[C@@H]2O3)CC1 | > 100 | > 100 | 88.8 | > 100 | > 100 | > 100 | > 100 | > 100 | > 100 | > 100 | > 100 | > 100 | > 100 | > 100 | > 100 | > 100 | > 100 | > 100 | > 100 | > 100 |
| CN(C)c1ccc(N=Nc2cccc3ccoc23)cc1 | > 100 | > 100 | > 100 | > 100 | > 100 | > 100 | > 100 | > 100 | > 100 | > 100 | > 100 | > 100 | > 100 | > 74.7 | > 100 | > 100 | > 100 | > 100 | > 100 | > 100 |
| COC(=O)c1ccccc1C1CN=NC12Cc1c(C)cc(C)cc1C2=O (stereo not given) | > 100 | > 100 | > 100 | > 100 | > 100 | > 100 | > 100 | > 100 | > 100 | > 100 | > 100 | > 100 | > 100 | > 100 | > 100 | > 100 | > 100 | > 100 | > 100 | > 100 |
| O=C(O)CN1CCNCCN(CC(=O)O)CC1 | > 100 | > 100 | > 100 | > 100 | 55.7 | > 90.6 | > 100 | > 100 | > 80 | > 100 | > 100 | > 100 | > 100 | > 28.6 | > 100 | > 100 | 6.12 | > 100 | > 100 | > 100 |
| CCOC(=O)CSc1nc(-c2ccc(OC)cc2)c(C#N)c(=O)[nH]1 | > 100 | > 100 | > 100 | > 100 | > 100 | > 100 | > 100 | > 100 | > 100 | > 100 | > 100 | > 100 | > 100 | > 100 | > 100 | > 100 | > 100 | > 100 | > 100 | > 100 |
| CCOC(=O)Cn1c(=O)c2nc(SC)sc2n(-c2ccc(C)cc2)c1=S | > 100 | 96.8 | > 100 | > 100 | > 100 | > 89.8 | > 100 | > 89.2 | > 100 | 61.1 | > 100 | > 75 | > 100 | > 100 | > 100 | > 100 | > 100 | > 100 | > 100 | > 100 |
| O=C(OCc1ccccc1)N1CCNCCNCC1 | > 100 | > 100 | > 100 | > 100 | > 100 | > 100 | > 100 | > 100 | > 100 | > 100 | > 100 | > 100 | > 100 | > 100 | > 100 | > 100 | > 100 | > 100 | > 100 | > 100 |
| Cc1c(O)c(OC2OC(CO)C(O)C(O)C2O)cc2c1CC[C@@H]1C2(C)C(=O)C[C@]2(C)[C@@H]([C@@](C)(O)C(O)/C=C/C(C)(C)O)[C@H](O)C[C@@]12C (stereo not given in full) | > 100 | > 100 | > 100 | > 100 | > 100 | > 100 | > 100 | > 100 | > 100 | > 100 | > 100 | > 100 | > 100 | > 100 | > 100 | > 100 | > 100 | > 100 | > 100 | > 100 |
| CC(=O)C1(c2ccccc2)CCN(Cn2sc3nc(C)cc(C)c3c2=O)CC1 | > 100 | > 100 | 77.3 | > 100 | 72.7 | 36.1 | > 100 | > 100 | > 100 | 39.3 | 58.1 | 50.9 | 33.5 | 52.5 | > 100 | > 100 | 33.8 | 39 | > 100 | 49.8 |
| N#Cc1c(C#N)c(-c2cccc([N+](=O)[O-])c2)n(-c2ccccc2)c1N | > 100 | > 100 | > 100 | > 100 | > 100 | > 100 | > 100 | > 100 | > 100 | > 100 | > 100 | > 100 | > 100 | > 100 | > 100 | > 100 | > 100 | > 100 | > 100 | > 100 |
| Cc1cc(C)c2c(=O)cc(-c3ccc(Cl)cc3)[nH]c2n1 | > 100 | > 100 | > 100 | > 50.7 | > 100 | > 100 | > 100 | > 100 | > 100 | > 100 | > 100 | > 100 | > 100 | > 83 | > 100 | > 100 | > 55.6 | > 100 | > 100 | > 100 |
| O=C1c2ccccc2C(=O)c2c(OCC3CO3)ccc(OCC3CO3)c21 (stereo not given) | 13.3 | 27.8 | 0.95 | 12 | > 46.3 | 53.1 | 10.8 | 2.29 | 22.2 | 8.31 | 35.5 | 9.02 | 6.63 | 2.18 | 11.4 | 5.68 | 9.34 | 30.9 | 0.393 | 4.74 |
| O=c1c2cccnc2[nH]c2ccc3scnc3c12 | > 10 | > 10 | > 10 | > 10 | > 10 | > 10 | > 10 | > 10 | > 10 | 8.71 | > 10 | > 10 | > 10 | > 10 | > 10 | > 10 | > 10 | > 10 | > 10 | > 10 |
| O=C(NO)c1cccc(OCc2ccc(Br)cc2)c1 | 13.7 | 50 | 18.3 | 49.9 | 28.4 | > 100 | 35 | 38.1 | > 58.5 | 25.6 | > 79.3 | > 41.4 | 12.8 | 21.9 | > 64.9 | > 100 | 27.4 | > 70.7 | > 20 | 12.8 |
